These results are taken from patent US5132429A, “Benzotriazole derivatives and fluorescence-emitting reagents thereof” (priority 1988, dated 1992).

In one data set the test system is Human Serum Albumine. The data set is described as follows: Fluorescence (excitation and fluorescence wavelength) with human serum albumin. Type of data set: physicochemical. As for the experimental part:
A solution containing a compound is added to a solution containing albumin and the mixed solution is subjected to determination of fluorescence intensity at excitation. fluorescence wavelength as shown in Table 2. According to the working curve on the standard albumin solution made beforehand, the concentration of albumin in the sample solution is determined.

Data set [1] has as its system α1-AG. The data set is described as follows: Fluorescence (excitation and fluorescence wavelength) with α1-AG. Type of data set: physicochemical. As for the experimental part: (§1) Two different kinds of solutions, one containing α1 -AG and a compound of this invention listed above, the other containing α1 -AG, the compound of this invention, and a drug, are prepared to measure fluorescence intensity at the excitation. fluorescence wavelength, as shown in Table 2. According to the working curve made beforehand, the binding rate of the compound to α1 -AG in each solution is determined and the binding constant of a drug to α1-AG is calculated from the difference between the binding rates in the presence and the absence of a drug.
Sulfosalicylic acid is added to the sample solution containing α1 -AG to remove coexisting proteins, to which the solution containing a compound is added. The mixed solution is subjected to determination of fluorescence intensity at excitation. fluorescence wavelength as shown in Table 2. According to the working curve on the standard solution of α1 -AG, the concentration of α1-AG in the sample is determined.

In data set [2] the test system is α1-AG. The conditions noted are these: cited from earlier work.
The test system of data set [3] is α1-AG (α1-acid glycoprotein). The data set is described as follows: Binding of compound to α1-AG by fluorescence titration, Scatchard analysis. As to conditions: for binding of the compound 1 to α1-AG: pH 7.4. The procedure:
(§2) In the fluorescence cell made of quartz with a plug was placed the buffer solution of 0.1M phosphoric acid (2 ml) which pH is 7.4 and containig 1×10^-4 M α1 -AG, to which 5×10^-4 M aqueous solution of the compound 1 was added by 2 μl each with a microcylinder, which was prepared by dissolving about 3 mg of the compound 1 in 1N hydrochloric acid (1 ml), followed by diluting with water to make the total volume 200 times, and the resulting solution was mixed fully to determine fluorescence intensity at 508 nm (excitation wavelength: 418 nm).
(§3) For the buffer solution of 0.1M phosphoric acid (2 ml) which pH is 7.4 and containing 3×10^-6 M α1 -AG, the same procedure as in Example 1 was performed.
The binding rate (X) of the compound 1 to α1 -AG was introduced from the following formula (1) [formula]
In this scheme, Fb is fluorescence intensity at some concentration of the compound 1 which was obtained in Experiment 1, Fp is fluorescence intensity at the same concentration of the compound 1 which was obtained in Example 2, and Fo is blank value.
The value introduced from the binding rate at each concentration of the compound 1 was plotted accoding to the formula (2) of Scatchard, whereby the binding parameter of the compound 1 to α1 -AG was obtained.
In this scheme, r is the amount of binding of the compound 1 per α1 -AG (1 mole), n is the number of binding site, Ka is the binding constant of the compound 1, Df is the concentration of the compound 1 which is free form.

In data set [4] the target is α1-AG (α1-acid glycoprotein). The data set is described as follows: Binding constant of basic drug to α1-AG by displacement of compound 1 (fluorescence probe method, Klotz formula). As to conditions: 0.1M phosphoric acid buffer pH 7.4; 3×10^-6 M α1-AG; compound 1 as probe. The procedure: as §1, §2, §3
As for the other basic drugs shown in Table 3, binding constant were obtained according to the same manner as in Example 11.

Structures are written as SMILES.

As for `CCOC(=O)c1cc(N)cc2nn(-c3ccc(N(CC)CC)cc3)nc12` [Compound 5, Ethyl 6-amino-2-(p-diethylaminophenyl)-2H-benzotriazole-4-carboxylate], in the data set with Human Serum Albumine, the “Excitation Wavelength” value is 420 nm and the “Fluorescence Wavelength” value turned out to be 520 nm. In the data set on α1-AG [1], the “Excitation Wavelength” value was 452 nm and the “Fluorescence Wavelength” value came out at 567 nm.
As for `CN(C)c1ccc(C(=N)c2ccc(N(C)C)cc2)cc1` [Auramin O], the “binding strength to α1-AG” value with α1-AG [2] (Y. Sugiyama et al, Biochem. Pharmcol. 34(6), 821-829 (1985)) is “very weak”.
Take `CCN(CC)c1ccc(-n2nc3cc(N)cc(Cl)c3n2)cc1` [Compound 1, 7-chloro-2-(p-diethylaminophenyl)-2H-benzotriazolyl-5-amine]: the “Excitation Wavelength” value was found to be 415 nm in the data set on Human Serum Albumine and 418 nm in the data set with α1-AG [1]. In addition, the “Fluorescence Wavelength” value with Human Serum Albumine came out at 505 nm; in the data set on α1-AG [1], 508 nm. Moreover, the “n (number of binding site)” value in data set [3] (0.1M phosphoric acid buffer pH 7.4, 3×10^-6 M α1-AG, Scatchard) was found to be 0.40. Also, the “binding of the compound 1 to α1-AG” value in data set [3] (1×10^-4 M α1-AG, ex 418 nm, em 508 nm) was “all of the compound 1 bound to α1 -AG”; in data set [3] (3×10^-6 M α1-AG), “under an equilibrium condition”.
For `CC(CN1c2ccccc2Sc2ccccc21)N(C)C` (stereo not shown) [Promethazine], the “log Kb (binding constant)” value in data set [4] was 4.94.
On the same count and under the same terms, the result for `CN(C)CCCN1c2ccccc2CCc2ccccc21` [Imipramine] reads 5.61.
As for `CCC(c1ccccc1)c1c(O)c2ccccc2oc1=O` (stereo not shown) [Phenprocoumon], the “wavelength suitable for determination” value with α1-AG [2] (M. Otagiri et al., J. of Pharmaceutical Sciences 76(8), 646-649 (1987)) is on record as “short”.
Regarding `Nc1cc(Cl)c2nn(-c3ccc(N4CCOCC4)cc3)nc2c1` [Compound 4, 7-chloro-2-(p-morpholinophenyl)-2H-benzotriazolyl-5-amine], the figures for the “Excitation Wavelength” value in the data set with Human Serum Albumine and with α1-AG [1] were 383 nm and 396 nm, respectively. The “Fluorescence Wavelength” value in the data set with Human Serum Albumine came out at 465 nm; in the data set with α1-AG [1], 502 nm.
For the molecule `CC(C)NCC(O)COc1cccc2[nH]ccc12` (stereo not shown) [Pindolol], the “log Kb (binding constant)” value in data set [4] turned out to be 5.33.
Same read-out and setting: the result for `COc1ccc([C@@H]2Sc3ccccc3N(CCN(C)C)C(=O)[C@@H]2OC(C)=O)cc1` [Diltiazem] reads 5.40; that for `CC(CN(C)C)CN1c2ccccc2CCc2ccccc21` (stereo not shown) [Trimipramine], 5.54.
On the same count and under the same terms, the result for `COc1ccc2c(c1)N(C[C@H](C)CN(C)C)c1ccccc1S2` [Levomepromazine] reads 6.01.
Consider `COC(=O)C1=C(C)NC(C)=C(C(=O)OCCN(C)Cc2ccccc2)C1c1cccc([N+](=O)[O-])c1` (stereo not shown) [Nicardipine], for which the “log Kb (binding constant)” value in data set [4] was 6.78.
On the same count and under the same terms, the result for `CNCCCN1c2ccccc2CCc2ccccc21` [Desipramine] reads 4.86; that for `CN(C)CCC=C1c2ccccc2CCc2ccccc21` [Amitriptyline], 5.58.
As for `CNc1ccc(-n2nc3cc(N)cc(Cl)c3n2)cc1` [Compound 2, 7-chloro-2-(p-methylaminophenyl)-2H-benzotriazolyl-5-amine], the “Excitation Wavelength” value with Human Serum Albumine is recorded as 385 nm; in the data set on α1-AG [1] it was 396 nm. The “Fluorescence Wavelength” value is on record as 480 nm with Human Serum Albumine and 482 nm in the data set on α1-AG [1].
The matching figures for `Nc1cc(Cl)c2nn(-c3ccc(Nc4ccccc4)cc3)nc2c1` [Compound 3, 7-chloro-2-(p-anilinophenyl)-2H-benzotriazolyl-5-amine]: 400 nm, 400 nm, 485 nm and 505 nm.
